Values quoted from earlier work, collected in patent publication US20170020837A1, “FUMARATE COMPOUNDS, PHARMACEUTICAL COMPOSITIONS THEREOF, AND METHODS OF USE” (priority 2015, published 2017).

aqueous solubility: poor
Structure (SMILES): COC(=O)/C=C/C(=O)OC [DMF, dimethylfumarate]
